In PMC3947346 (Psychopharmacology, 2013):

Legend:
male C57BL/6 J mice [1] = assay: blood ethanol concentrations; format: in vivo; conditions: 17 mg/kg p.o.
[2] = in vivo pharmacokinetic study, plasma; set-up: species or system mice; conditions: 10 mg/kg p.o.
male C57BL/6 J mice [3] = assay: repeated drinking-in-the-dark
male C57BL/6 J mice [4] = assay: intermittent access to ethanol

In the case of `COc1nn(-c2ccc(F)c(NC(C)=O)c2)c(=O)n(Cc2ccc(Cl)c(F)c2)c1=O` [ADX71441], the “BEC after 4 h IA, difference vs vehicle treatment” value (male C57BL/6 J mice [1]) is reported as “not statistically different”, the “Average BEC (blood ethanol concentration)” value (male C57BL/6 J mice [1]; after 4 h IA access, vehicle 47.73±9.18 mg/dl) is reported as 35.74 ± 5.34 mg/dL and the “mean plasma concentration at 4 h as % of the mean Cmax” value ([2]; 4 h) is reported as 72%. The “mean plasma concentration at 24 h as % of the mean Cmax” value ([2]; 24 h) was 5%, the “AUC0–8” value ([2]; male C57BL/6 mice) was 6,970 ng h/ml and the “C max ± SD” value ([2]; male C57BL/6 mice) was 673 ± 50 ng/mL. For the same molecule, the “Plasma concentration at 0.25 h” value ([2]; male C57BL/6 mice) was 538 ± 51 ng/mL, the “Plasma concentration ± SD at 1 h” value ([2]; male C57BL/6 mice) was 629 ± 61 ng/mL and the “Plasma concentration ± SD at 4 h” value ([2]; male C57BL/6 mice) was 487 ± 62 ng/mL. The “Plasma concentration ± SD at 24 h” value ([2]; male C57BL/6 mice) was 36.4 ± 33 ng/mL, the “T 1/2 (terminal half-life)” value ([2]; male C57BL/6 mice) was 5.3 h and the T max ([2]; male C57BL/6 mice) was 2 h. For the same molecule, the “AUClast ± SD” value ([2]; male C57BL/6 mice, Tlast=24 h) was 6,700±309 ng h/ml, the “motor activity, observation” value (male C57BL/6 J mice [3]; 30 mg/kg p.o.) was “signs of mild reduction in motor activity in a few animals” and the “DID ethanol intake (gram per kilogram), effect vs vehicle” value (male C57BL/6 J mice [3]; 3, 10, 30 mg/kg p.o., hours 1-4, post hoc only 10 and 30 mg/kg) was “significantly and dose-dependently reduced”. For the same molecule, the “Percent change from baseline, volume of ethanol (ml)” value (shortened to “Percent change from baseline … (ml)”) (male C57BL/6 J mice [3]; DID, 3 mg/kg p.o., 1 h) was −25.93±11.92%, the “Percent change from baseline … (ml)” value (male C57BL/6 J mice [3]; DID, 3 mg/kg p.o., 2 h) was −23.12±7.29% and the “Percent change from baseline … (ml)” value (male C57BL/6 J mice [3]; DID, 3 mg/kg p.o., 3 h) was −9.84±6.84%. For the same molecule, the “Percent change from baseline … (ml)” value (male C57BL/6 J mice [3]; DID, 3 mg/kg p.o., 4 h) was −4.83±8.82%, the “Percent change from baseline … (ml)” value (male C57BL/6 J mice [3]; DID, 10 mg/kg p.o., 1 h) was −70.44±13.55 % and the “Percent change from baseline … (ml)” value (male C57BL/6 J mice [3]; DID, 10 mg/kg p.o., 2 h) was −57.53±8.28 %. The “Percent change from baseline … (ml)” value (male C57BL/6 J mice [3]; DID, 10 mg/kg p.o., 3 h) was −36.11±5.39 %, the “Percent change from baseline … (ml)” value (male C57BL/6 J mice [3]; DID, 10 mg/kg p.o., 4 h) was −25.11±7.68 % and the “Percent change from baseline … (ml)” value (male C57BL/6 J mice [3]; DID, 30 mg/kg p.o., 1 h) was −80.73±4.11 %. The “Percent change from baseline … (ml)” value (male C57BL/6 J mice [3]; DID, 30 mg/kg p.o., 2 h) was −86.04±4.05 %, the “Percent change from baseline … (ml)” value (male C57BL/6 J mice [3]; DID, 30 mg/kg p.o., 3 h) was −80.99±4.39 % and the “Percent change from baseline … (ml)” value (male C57BL/6 J mice [3]; DID, 30 mg/kg p.o., 4 h) was −69.57±3.89 %. For the same molecule, the “Mean percent change from vehicle baseline, ethanol intake” value (male C57BL/6 J mice [3]; DID, highest dose (30 mg/kg p.o.), across the 4-h test) was −70–80%, the “Ethanol preference, effect” value (male C57BL/6 J mice [4]; IA, 3, 10, 17 mg/kg p.o., any time point) was “not significantly affected” and the “Percent change from baseline, volume of ethanol” value (male C57BL/6 J mice [4]; IA, 3 mg/kg p.o., 2 h) was −3.92±12.96%. The “Percent change from baseline, volume of ethanol” value (male C57BL/6 J mice [4]; IA, 3 mg/kg p.o., 4 h) was −8.21±7.51%, the “Percent change from baseline, volume of ethanol” value (male C57BL/6 J mice [4]; IA, 3 mg/kg p.o., 24 h) was 0.31±6.16% and the “Percent change from baseline, volume of ethanol” value (male C57BL/6 J mice [4]; IA, 10 mg/kg p.o., 2 h) was −37.54±18.17%. For the same molecule, the “Percent change from baseline, volume of ethanol” value (male C57BL/6 J mice [4]; IA, 10 mg/kg p.o., 4 h) was −29.60±10.55 %, the “Percent change from baseline, volume of ethanol” value (male C57BL/6 J mice [4]; IA, 10 mg/kg p.o., 24 h) was −10.12±5.36% and the “Percent change from baseline, volume of ethanol” value (male C57BL/6 J mice [4]; IA, 17 mg/kg p.o., 2 h) was −66.39±10.30 %. The “Percent change from baseline, volume of ethanol” value (male C57BL/6 J mice [4]; IA, 17 mg/kg p.o., 4 h) was −44.07±9.06 %, the “Percent change from baseline, volume of ethanol” value (male C57BL/6 J mice [4]; IA, 17 mg/kg p.o., 24 h) was −15.30±4.81 % and the “Percent change from baseline, volume of water” value (“Percent change … of water” for short) (male C57BL/6 J mice [4]; IA, 3 mg/kg p.o., 2 h) was 46.78±40.53%. The “Percent change … of water” value (male C57BL/6 J mice [4]; IA, 3 mg/kg p.o., 4 h) was 17.35±22.27%, the “Percent change … of water” value (male C57BL/6 J mice [4]; IA, 3 mg/kg p.o., 24 h) was −7.73±19.28% and the “Percent change … of water” value (male C57BL/6 J mice [4]; IA, 10 mg/kg p.o., 2 h) was 55.56±45.39%. For the same molecule, the “Percent change … of water” value (male C57BL/6 J mice [4]; IA, 10 mg/kg p.o., 4 h) was 19.72±20.18%, the “Percent change … of water” value (male C57BL/6 J mice [4]; IA, 10 mg/kg p.o., 24 h) was 9.05±18.21% and the “Percent change … of water” value (male C57BL/6 J mice [4]; IA, 17 mg/kg p.o., 2 h) was −26.90±22.63%. The “Percent change … of water” value (male C57BL/6 J mice [4]; IA, 17 mg/kg p.o., 4 h) was −9.62±13.96%, the “Percent change … of water” value (male C57BL/6 J mice [4]; IA, 17 mg/kg p.o., 24 h) was 10.83±11.73% and the “IA ethanol drinking (gram per kilogram), effect vs vehicle” value (male C57BL/6 J mice [4]; p.o., 4-h access period, 10 and 17 mg/kg most effective, not at 2 h) was “reduced ethanol drinking”.
In the case of `O=C1CC[C@@]2(O)[C@H]3Cc4ccc(O)c5c4[C@@]2(CCN3CC2CC2)[C@H]1O5` [Naltrexone, reference compound], the “DID ethanol intake (gram per kilogram), effect vs vehicle” value (male C57BL/6 J mice [3]; 0.1, 1, 10 mg/kg i.p., any subsequent hour (2-4 h)) is reported as “no effect”, the “DID ethanol intake (gram per kilogram), effect vs vehicle” value (male C57BL/6 J mice [3]; 0.1, 1, 10 mg/kg i.p., first hour, all doses) is reported as “significantly reduced ethanol drinking” and the “Mean percent decrease of ethanol intake (ml)” value (male C57BL/6 J mice [3]; DID, 10 mg/kg i.p., initial hour) is reported as “approximately 57%”. The “IA ethanol drinking (gram per kilogram), effect vs saline vehicle” value (male C57BL/6 J mice [4]; 10 mg/kg i.p., 2-h access) was “decreased ethanol drinking” and the “Mean percent decrease of ethanol intake (ml)” value (male C57BL/6 J mice [4]; IA, 10 mg/kg i.p., 2 h) was “approximately 36%”.
